Source: PubChem BioAssay (NCI)
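Step 1: Grow cells in 96-well plates. Step 2: Expose to compound for 48 hours at 5 concentrations. Step 3: Interpolate endpoints linearly; if unreached, use highest concentration. The concentration for 50% growth inhibition is given as GI50. TGI marks complete inhibition of growth.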

Columns and labels:
Assay in all cases: growth of human tumour cells (NCI), 48 h
CCRF-CEM leukemia = tested on: CCRF-CEM leukemia
DU-145 prostate = tested on: DU-145 prostate
HL-60(TB) leukemia = tested on: HL-60(TB) leukemia
NCI-H226 lung = tested on: NCI-H226 lung
OVCAR-4 ovarian = tested on: OVCAR-4 ovarian
RXF 393 renal = tested on: RXF 393 renal
SK-MEL-2 melanoma = tested on: SK-MEL-2 melanoma
SK-OV-3 ovarian = tested on: SK-OV-3 ovarian
UACC-257 melanoma = tested on: UACC-257 melanoma
SF-295 CNS = tested on: SF-295 CNS

Question: `CN1CCn2c(c(Sc3ccc(C(=O)NO)cc3)c3ccccc32)C1=O` was tested. Which GI50 (CCRF-CEM leukemia) did it give?
Answer: Its GI50 is 1.23 µM.

Question: And the TGI (CCRF-CEM leukemia)?
Answer: Its TGI is > 27.8 µM.

Question: What about the GI50 (DU-145 prostate) of the same molecule?
Answer: The GI50 was 2.97 µM.

Question: And the TGI (DU-145 prostate)?
Answer: The TGI was 12.8 µM.

Question: And the GI50 (HL-60(TB) leukemia)?
Answer: The GI50 was 3.16 µM.

Question: And the TGI (HL-60(TB) leukemia)?
Answer: The TGI was 32 µM.

Question: What about the GI50 (NCI-H226 lung) of the same molecule?
Answer: The GI50 was 1.78 µM.

Question: And the TGI (NCI-H226 lung)?
Answer: Its TGI is 3.9 µM.

Question: What about the GI50 (OVCAR-4 ovarian) of the same molecule?
Answer: The GI50 was 2.14 µM.

Question: What about the TGI (OVCAR-4 ovarian) of the same molecule?
Answer: Its TGI is 9.99 µM.

Question: And the GI50 (RXF 393 renal)?
Answer: Its GI50 is 1.62 µM.

Question: And the TGI (RXF 393 renal)?
Answer: Its TGI is 3.17 µM.

Question: What about the GI50 (SK-MEL-2 melanoma) of the same molecule?
Answer: Its GI50 is 2.01 µM.

Question: And the TGI (SK-MEL-2 melanoma)?
Answer: The TGI was 4.1 µM.

Question: And the GI50 (SK-OV-3 ovarian)?
Answer: Its GI50 is 2.11 µM.

Question: And the TGI (SK-OV-3 ovarian)?
Answer: The TGI was 4.8 µM.

Question: And the GI50 (UACC-257 melanoma)?
Answer: The GI50 was 1.51 µM.

Question: What about the TGI (UACC-257 melanoma) of the same molecule?
Answer: Its TGI is 3.56 µM.

Question: Which results are given for `O=P1(O)c2ccccc2Nc2cc(C(F)(F)F)ccc21`?
Answer: TGI (CCRF-CEM leukemia): > 100 µM; TGI (DU-145 prostate): > 100 µM; TGI (HL-60(TB) leukemia): > 100 µM; TGI (NCI-H226 lung): > 100 µM; TGI (OVCAR-4 ovarian): > 100 µM; TGI (RXF 393 renal): > 100 µM; TGI (SF-295 CNS): > 100 µM; TGI (SK-MEL-2 melanoma): > 100 µM; TGI (SK-OV-3 ovarian): > 100 µM; TGI (UACC-257 melanoma): > 100 µM

Question: Which results are given for `C=C1CC[C@@H]2[C@](C)(COC(C)=O)[C@H](OC(C)=O)CC[C@@]2(C)[C@@H]1C/C=C1/C(=O)OC[C@H]1OC(C)=O`?
Answer: GI50 (CCRF-CEM leukemia): 1.12 µM; TGI (CCRF-CEM leukemia): 5.32 µM; GI50 (DU-145 prostate): 4.47 µM; TGI (DU-145 prostate): 14.7 µM; GI50 (HL-60(TB) leukemia): 2.61 µM; TGI (HL-60(TB) leukemia): 6.78 µM; GI50 (NCI-H226 lung): 2.14 µM; TGI (NCI-H226 lung): 5.42 µM; GI50 (OVCAR-4 ovarian): 3.57 µM; TGI (OVCAR-4 ovarian): 15.4 µM; GI50 (RXF 393 renal): 1.95 µM; TGI (RXF 393 renal): 4.13 µM; GI50 (SF-295 CNS): 13.3 µM; TGI (SF-295 CNS): 26.8 µM; GI50 (SK-MEL-2 melanoma): 10.7 µM; TGI (SK-MEL-2 melanoma): 26.3 µM; GI50 (SK-OV-3 ovarian): 19.1 µM; TGI (SK-OV-3 ovarian): 36.3 µM; GI50 (UACC-257 melanoma): 6.2 µM; TGI (UACC-257 melanoma): 19.9 µM

Question: What does the source list for `COC(=O)[C@@]1(O)C[C@H]2O[C@]1(C)n1c3ccccc3c3c4c(c5c6ccccc6n2c5c31)C(=O)NC4`?
Answer: GI50 (CCRF-CEM leukemia): 0.321 µM; TGI (CCRF-CEM leukemia): 1.64 µM; GI50 (DU-145 prostate): 0.161 µM; TGI (DU-145 prostate): 5.9 µM; GI50 (HL-60(TB) leukemia): 0.868 µM; GI50 (NCI-H226 lung): 0.32 µM; TGI (NCI-H226 lung): 1.72 µM; GI50 (OVCAR-4 ovarian): 1.24 µM; TGI (OVCAR-4 ovarian): 2.76 µM; GI50 (RXF 393 renal): 0.159 µM; TGI (RXF 393 renal): 1.49 µM; GI50 (SF-295 CNS): 0.661 µM; TGI (SF-295 CNS): 2.31 µM; GI50 (SK-MEL-2 melanoma): 0.0476 µM; TGI (SK-MEL-2 melanoma): 1.61 µM; GI50 (SK-OV-3 ovarian): 0.0336 µM; TGI (SK-OV-3 ovarian): 0.926 µM; GI50 (UACC-257 melanoma): 0.527 µM; TGI (UACC-257 melanoma): 3.33 µM

Question: `CCOC(=O)C#Cc1c(CC(=O)OCC)nnn1[C@H]1O[C@@H](CO)[C@@H]2OC(C)(C)O[C@@H]21` was tested. Which GI50 (CCRF-CEM leukemia) did it give?
Answer: The GI50 was 2.04 µM.

Question: What about the TGI (CCRF-CEM leukemia) of the same molecule?
Answer: The TGI was 4.97 µM.

Question: What about the GI50 (DU-145 prostate) of the same molecule?
Answer: The GI50 was 10.2 µM.

Question: And the TGI (DU-145 prostate)?
Answer: The TGI was 21.8 µM.

Question: What about the GI50 (HL-60(TB) leukemia) of the same molecule?
Answer: Its GI50 is 1.86 µM.

Question: And the TGI (HL-60(TB) leukemia)?
Answer: The TGI was 5.71 µM.

Question: And the GI50 (NCI-H226 lung)?
Answer: The GI50 was 1.79 µM.

Question: And the TGI (NCI-H226 lung)?
Answer: Its TGI is 3.26 µM.

Question: And the GI50 (OVCAR-4 ovarian)?
Answer: The GI50 was 2.11 µM.

Question: And the TGI (OVCAR-4 ovarian)?
Answer: Its TGI is 5.43 µM.

Question: What about the GI50 (RXF 393 renal) of the same molecule?
Answer: Its GI50 is 1.69 µM.

Question: And the TGI (RXF 393 renal)?
Answer: The TGI was 3.32 µM.

Question: What about the GI50 (SF-295 CNS) of the same molecule?
Answer: The GI50 was 43.6 µM.

Question: And the TGI (SF-295 CNS)?
Answer: The TGI was > 100 µM.

Question: What about the GI50 (SK-MEL-2 melanoma) of the same molecule?
Answer: Its GI50 is 18.4 µM.

Question: What about the TGI (SK-MEL-2 melanoma) of the same molecule?
Answer: Its TGI is 34.8 µM.

Question: What about the GI50 (SK-OV-3 ovarian) of the same molecule?
Answer: Its GI50 is 37.3 µM.

Question: What about the TGI (SK-OV-3 ovarian) of the same molecule?
Answer: Its TGI is > 100 µM.

Question: And the GI50 (UACC-257 melanoma)?
Answer: The GI50 was 4.47 µM.

Question: What about the TGI (UACC-257 melanoma) of the same molecule?
Answer: The TGI was 12.7 µM.

Question: Which results are given for `O=C1/C(=C/c2ccc(Cl)cc2)COc2ccc(O)c(O)c21`?
Answer: GI50 (DU-145 prostate): 1.44 µM; TGI (DU-145 prostate): 3.13 µM; GI50 (HL-60(TB) leukemia): 0.28 µM; TGI (HL-60(TB) leukemia): 0.827 µM; GI50 (NCI-H226 lung): 1.86 µM; TGI (NCI-H226 lung): 5.18 µM; GI50 (OVCAR-4 ovarian): 1.33 µM; TGI (OVCAR-4 ovarian): 2.71 µM; GI50 (RXF 393 renal): 1.34 µM; TGI (RXF 393 renal): 2.75 µM; GI50 (SF-295 CNS): 3.37 µM; TGI (SF-295 CNS): 13.2 µM; GI50 (SK-MEL-2 melanoma): 2.51 µM; TGI (SK-MEL-2 melanoma): 7.63 µM; GI50 (SK-OV-3 ovarian): 2.49 µM; TGI (SK-OV-3 ovarian): > 100 µM; GI50 (UACC-257 melanoma): 1.65 µM; TGI (UACC-257 melanoma): 3.88 µM
